For 13 molecules, IC50 and inhibition results are on record in patent publication US9828379B2 (priority 2013, dated 2017).

For orientation: IC50 means the concentration at which inhibition is half-maximal. The inhibition is the drop in the measured response relative to a control, in per cent.

Assay [1] addresses T1, ABHD6 (Mus musculus, UniProt Q8R2Y0).
T1 sequence (Q8R2Y0 1-336): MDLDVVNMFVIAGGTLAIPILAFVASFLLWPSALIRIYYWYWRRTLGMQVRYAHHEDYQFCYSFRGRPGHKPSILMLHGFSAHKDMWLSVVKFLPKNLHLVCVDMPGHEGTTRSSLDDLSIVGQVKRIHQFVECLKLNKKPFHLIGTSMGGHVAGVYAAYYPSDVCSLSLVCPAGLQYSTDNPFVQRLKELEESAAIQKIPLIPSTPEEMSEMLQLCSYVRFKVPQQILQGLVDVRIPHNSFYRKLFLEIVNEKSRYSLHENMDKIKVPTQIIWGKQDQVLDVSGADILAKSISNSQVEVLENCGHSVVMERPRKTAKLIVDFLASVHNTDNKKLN
The experiment in a line: biochemical. The settings on record: in vitro competitive ABPP.

Assay [2] has as its target T2, FAAH (Mus musculus, UniProt O08914).
T2 sequence (O08914 1-579): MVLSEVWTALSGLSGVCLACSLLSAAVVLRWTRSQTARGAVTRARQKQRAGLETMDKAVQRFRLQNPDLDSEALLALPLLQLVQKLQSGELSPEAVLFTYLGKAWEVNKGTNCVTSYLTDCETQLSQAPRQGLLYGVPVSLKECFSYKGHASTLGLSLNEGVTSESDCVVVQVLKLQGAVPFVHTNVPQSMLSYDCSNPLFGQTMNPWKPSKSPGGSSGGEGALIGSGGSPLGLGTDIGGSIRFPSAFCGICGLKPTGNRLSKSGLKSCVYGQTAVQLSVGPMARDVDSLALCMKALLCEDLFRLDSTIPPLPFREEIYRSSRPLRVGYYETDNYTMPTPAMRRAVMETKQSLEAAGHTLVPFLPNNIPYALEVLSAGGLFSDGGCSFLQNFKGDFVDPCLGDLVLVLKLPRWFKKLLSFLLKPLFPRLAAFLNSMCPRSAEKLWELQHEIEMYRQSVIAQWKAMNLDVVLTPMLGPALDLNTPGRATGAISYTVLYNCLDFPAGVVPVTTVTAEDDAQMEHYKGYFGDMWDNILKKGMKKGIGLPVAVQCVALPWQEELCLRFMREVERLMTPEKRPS
The experiment in a line: biochemical. The settings on record: in vitro competitive ABPP.

Assay [3] deals with T3, MAGL (Mus musculus, UniProt O35678).
T3 sequence (O35678 1-303): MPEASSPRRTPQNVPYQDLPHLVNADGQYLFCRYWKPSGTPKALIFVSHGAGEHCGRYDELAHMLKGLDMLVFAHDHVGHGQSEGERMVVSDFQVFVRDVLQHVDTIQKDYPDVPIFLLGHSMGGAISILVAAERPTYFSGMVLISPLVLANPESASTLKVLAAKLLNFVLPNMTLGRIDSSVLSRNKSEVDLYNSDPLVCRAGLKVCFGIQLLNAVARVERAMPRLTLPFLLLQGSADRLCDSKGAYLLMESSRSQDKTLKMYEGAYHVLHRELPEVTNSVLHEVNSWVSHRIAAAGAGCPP
The experiment in a line: biochemical. The settings on record: mouse; in vitro competitive ABPP; read-out: Mouse (IC50 value, nM) MAGL.

The target in assay [4] is T1, ABHD6. As to the kind of experiment: In vitro competitive activity-based protein profiling (Table 2, % inhibition at 1 μM). Format: biochemical. The settings on record: read-out: % Inhibition at 1 μM ABHD6.
Assay [5] deals with T2, FAAH. The description is as above. Format: biochemical. The settings on record: read-out: % Inhibition at 1 μM FAAH.
Assay [6] has as its target T3, MAGL. The description is as above. Type of assay: biochemical. The settings on record: read-out: % Inhibition at 1 μM MAGL. The procedure:
After 30 min, FP—Rh (1.0 μL, 50 μM in DMSO) was added and the mixture was incubated for another 30 min at 37° C. Reactions were quenched with SDS loading buffer (50 μL-4×) and run on SDS-PAGE.
Cell lysates were diluted with mock proteomes for use in competitive ABPP experiments.

Where only a bound is given, the exact number is not on record here.

With `O=C(OC(C(F)(F)F)C(F)(F)F)N1CC2CN(Cc3ccccc3-c3ccccc3)CC2C1` (stereo not drawn) [Example 12, 1,1,1,3,3,3-Hexafluoropropan-2-yl 5-[(2-phenylphenyl)methyl]-octahydropyrrolo[3,4-c]pyrrole-2-carboxylate], the IC50 on ABHD6 [1] was greater than 10000 nM; at FAAH [2] it was 1000 to 10000 nM; on MAGL [3], less than 100 nM. In addition, the inhibition at 1 µM was less than 25% on ABHD6 [4], 25 to 75% at FAAH [5] and greater than 75% on MAGL [6].
As for `Cc1c(CN2CC3CN(C(=O)OC(C(F)(F)F)C(F)(F)F)CC3C2)cccc1N1CCC(NS(C)(=O)=O)CC1` (stereo not drawn) [Example 149, 1,1,1,3,3,3-hexafluoropropan-2-yl 5-[[3-(4-methanesulfonamidopiperidin-1-yl)-2-methylphenyl]methyl]-octahydropyrrolo[3,4-c]pyrrole-2-carboxylate], the IC50 on ABHD6 [1] is 1000 to 10000 nM; on FAAH [2] it was 1000 to 10000 nM; on MAGL [3], less than 100 nM. Besides, the inhibition at 1 µM on ABHD6 [4] was less than 25%; at FAAH [5], 25 to 75%; on MAGL [6], greater than 75%.
For the molecule `Cc1ccc(CN2CC3CN(C(=O)OC(C(F)(F)F)C(F)(F)F)CC3C2)cc1-c1ccccc1` (stereo not drawn) [Example 206, 1,1,1,3,3,3-hexafluoropropan-2-yl 5-((6-methyl-[1,1′-biphenyl]-3-yl)methyl)hexahydropyrrolo[3,4-c]pyrrole-2(1H)-carboxylate], the figures for the IC50 at ABHD6 [1], on FAAH [2] and on MAGL [3] were 1000 to 10000 nM, 1000 to 10000 nM and 100 to 1000 nM, respectively. For the same molecule, the inhibition at 1 µM on ABHD6 [4] is 25 to 75%; on FAAH [5], 25 to 75%; on MAGL [6] it was greater than 75%.
In the case of `CC(C)(C)c1cc(CN2CC3CN(C(=O)OC(C(F)(F)F)C(F)(F)F)CC3C2)n(C2CCOCC2)n1` (stereo not drawn) [Example 157, 1,1,1,3,3,3-hexafluoropropan-2-yl 5-[[3-tert-butyl-1-(oxan-4-yl)-1H-pyrazol-5-yl]methyl]-octahydropyrrolo[3,4-c]pyrrole-2-carboxylate], the figures for the IC50 on ABHD6 [1], at FAAH [2] and at MAGL [3] were 1000 to 10000 nM, greater than 10000 nM and 100 to 1000 nM, respectively. Besides, the results for the inhibition at 1 µM on ABHD6 [4], at FAAH [5] and at MAGL [6] were less than 25%, less than 25% and greater than 75%, respectively.
On to `CC(C)n1cc(CN2CC3CN(C(=O)OC(C(F)(F)F)C(F)(F)F)CC3C2)c(-c2ccccc2)n1` (stereo not drawn) [Example 53, 1,1,1,3,3,3-Hexafluoropropan-2-yl 5-[[3-phenyl-1-(propan-2-yl)-1H-pyrazol-4-yl]methyl]-octahydropyrrolo[3,4-c]pyrrole-2-carboxylate], for which the IC50 was 1000 to 10000 nM on ABHD6 [1], 1000 to 10000 nM at FAAH [2] and less than 100 nM on MAGL [3]. For the same molecule, the inhibition at 1 µM is 25 to 75% at ABHD6 [4], less than 25% at FAAH [5] and greater than 75% on MAGL [6].
Take `O=C(OC(C(F)(F)F)C(F)(F)F)N1CC2CN(Cc3cc(CN4CCCC4)ccc3OC(F)(F)F)CC2C1` (stereo not drawn) [Example 190, 1,1,1,3,3,3-hexafluoropropan-2-yl 5-(5-(pyrrolidin-1-ylmethyl)-2-(trifluoromethoxy)benzyl)hexahydropyrrolo[3,4-c]pyrrole-2(1H)-carboxylate]: the 50% inhibitory concentration (IC50) at ABHD6 [1] lay within 1000 to 10000 nM; at FAAH [2], 1000 to 10000 nM; at MAGL [3] it was 100 to 1000 nM. Besides, the inhibition at 1 µM on ABHD6 [4] was less than 25%; at FAAH [5], less than 25%; on MAGL [6] it was greater than 75%.
As for `CC(=O)N1CCN(c2cc(Cl)ccc2CN2CC3CN(C(=O)OC(C(F)(F)F)C(F)(F)F)CC3C2)CC1` (stereo not drawn) [Example 21, 1,1,1,3,3,3-Hexafluoropropan-2-yl 5-[[2-(4-acetylpiperazin-1-yl)-4-chlorophenyl]methyl]-octahydropyrrolo[3,4-c]pyrrole-2-carboxylate], the IC50 on ABHD6 [1] was 100 to 1000 nM; on FAAH [2], 1000 to 10000 nM; at MAGL [3], less than 100 nM. The inhibition at 1 µM is 25 to 75% at ABHD6 [4], 25 to 75% on FAAH [5] and greater than 75% at MAGL [6].
For `Cc1cccc(-c2cc(CN3CC4CN(C(=O)OC(C(F)(F)F)C(F)(F)F)CC4C3)n(C)n2)c1` (stereo not drawn) [Example 196, 1,1,1,3,3,3-hexafluoropropan-2-yl 5-((1-methyl-3-(m-tolyl)-1H-pyrazol-5-yl)methyl)hexahydropyrrolo[3,4-c]pyrrole-2(1H)-carboxylate], the figures for the half-maximal inhibitory concentration (IC50) at ABHD6 [1], on FAAH [2] and at MAGL [3] were 1000 to 10000 nM, 1000 to 10000 nM and less than 100 nM, respectively. The inhibition at 1 µM was less than 25% on ABHD6 [4], less than 25% on FAAH [5] and greater than 75% at MAGL [6].
For the molecule `CC(C)c1ccc(CN2CC3CN(C(=O)OC(C(F)(F)F)C(F)(F)F)CC3C2)c(N2CCCC2)c1` (stereo not drawn) [Example 23, 1,1,1,3,3,3-Hexafluoropropan-2-yl 5-[[4-(propan-2-yl)-2-(pyrrolidin-1-yl)phenyl]methyl]-octahydropyrrolo[3,4-c]pyrrole-2-carboxylate], the IC50 at ABHD6 [1] lay within 1000 to 10000 nM; on FAAH [2] it was 1000 to 10000 nM; on MAGL [3] it was 100 to 1000 nM. For the same molecule, the inhibition at 1 µM at ABHD6 [4] is less than 25%; on FAAH [5], less than 25%; on MAGL [6], greater than 75%.
As for `Cc1c(CN2CC3CN(C(=O)ON4C(=O)CCC4=O)CC3C2)cccc1N1CCC(F)(F)CC1` (stereo not drawn) [Example 144, 2,5-dioxopyrrolidin-1-yl 5-[[3-(4,4-difluoropiperidin-1-yl)-2-methylphenyl]methyl]-octahydropyrrolo[3,4-c]pyrrole-2-carboxylate], the values for the IC50 on ABHD6 [1], at FAAH [2] and at MAGL [3] were 1000 to 10000 nM, 100 to 1000 nM and less than 100 nM, respectively. The inhibition at 1 µM on ABHD6 [4] is less than 25%; on FAAH [5] it was greater than 75%; on MAGL [6], greater than 75%.
As for `O=C(OC(C(F)(F)F)C(F)(F)F)N1CC2CN(Cc3cc(CN4CCCC4)cc(OC(F)(F)F)c3)CC2C1` (stereo not drawn) [Example 185, 1,1,1,3,3,3-hexafluoropropan-2-yl 5-(3-(pyrrolidin-1-ylmethyl)-5-(trifluoromethoxy)benzyl)hexahydropyrrolo[3,4-c]pyrrole-2(1H)-carboxylate], the concentration for half-maximal inhibition (IC50) on ABHD6 [1] was 1000 to 10000 nM; at FAAH [2], greater than 10000 nM; on MAGL [3], 100 to 1000 nM. Also, the inhibition at 1 µM at ABHD6 [4] is less than 25%; on FAAH [5], less than 25%; at MAGL [6] it was greater than 75%.
For the molecule `O=C(OC(C(F)(F)F)C(F)(F)F)N1CC2CN(Cc3ccc(N4CCOCC4)cc3C(F)(F)F)CC2C1` (stereo not drawn) [Example 10, 1,1,1,3,3,3-Hexafluoropropan-2-yl 5-[[4-(morpholin-4-yl)-2-(trifluoromethyl)phenyl]methyl]-octahydropyrrolo[3,4-c]pyrrole-2-carboxylate], the IC50 on ABHD6 [1] is 1000 to 10000 nM; on FAAH [2], 100 to 1000 nM; at MAGL [3], less than 100 nM. For the same molecule, the results for the inhibition at 1 µM at ABHD6 [4], at FAAH [5] and on MAGL [6] were less than 25%, 25 to 75% and greater than 75%, respectively.
`O=C(OC(C(F)(F)F)C(F)(F)F)N1CC2CN(Cc3ccc(C(=O)N4CCCCC4)c(OC(F)(F)F)c3)CC2C1` (stereo not drawn) [Example 192, 1,1,1,3,3,3-hexafluoropropan-2-yl 5-(4-(piperidine-1-carbonyl)-3-(trifluoromethoxy)benzyl)hexahydropyrrolo[3,4-c]pyrrole-2(1H)-carboxylate]: the IC50 is 1000 to 10000 nM at ABHD6 [1], greater than 10000 nM at FAAH [2] and 100 to 1000 nM on MAGL [3]. For the same molecule, the inhibition at 1 µM was 25 to 75% at ABHD6 [4], less than 25% on FAAH [5] and greater than 75% on MAGL [6].
